Experimental data published in patent publication US20240381822A1, “PLANT PART QUALITY” (Valent BioSciences LLC, priority 2023, published 2024).

What was measured:
Format in all cases: in vivo
[1] = test system: Summer Flame 34 variety Peaches; assay: Flesh mealiness of waxed peaches after cold storage (Example 2); settings: for Fold Change from Control (Flesh Mealiness Average Score): 1.2 mM single active; for Flesh Mealiness Average Score: 1.2 mM single active in Prima Fresh 55EU wax, 5 degrees Celsius 25 days, 3 day room temperature, 3-point scale
From the text: (§1) Summer Flame 34 variety Peaches were harvested and maintained at room temperature until treatment. Peaches were divided into 4 equal sets. Each treatment type contained 32 peaches and was repeated 3 times for a total of 96 peaches per treatment. For treatment, water, (S)-abscisic acid (“S-ABA”), methyl jasmonate or a mixture of S-ABA and methyl jasmonate were mixed in Prima Fresh 55EU wax and applied in a semicommercial mini packing line to simulate commercial packing conditions. Active ingredients were mixed into the wax at the following concentrations: 1) wax only; 2) 1.2 mM S-ABA; 3) 1.2 mM methyl jasmonate; 4) 1.2 mM S-ABA and 1.2 mM methyl jasmonate. All peaches were immediately stored at 5 degrees Celsius for 25 days. Following cold storage all peaches were placed at room temperature for 3 day and then evaluated for flesh browning as described in Example 1, above and also for flesh mealiness.
Flesh mealiness was determined using a 3-point scale developed by Crisosto G. M. 2015 wherein a score of 1=juicy fruit, 2=moderately mealy fruit (small amount of juice released upon squeezing) and 3=severely mealy fruit (almost no juice released upon squeezing). A flesh mealiness score of 2 or more was determined as a “flesh mealiness incident” and a score of 1 was determined as “healthy fruit” for efficacy purposes.
(§2) Determination of unexpected results was calculated using the method described in Example 1, above.

[2] = test system: Cucumbers; assay: Decay evaluation of cucumbers after cold storage (Example 3); settings: for % Healthy Fruit (decay): 2-minute dip, 5 degrees Celsius 11.5 days, then room temperature, 100% minus % disease incidence
From the text: Cucumbers were harvested and waxed and maintained at room temperature until treatment. Cucumbers were divided into 9 equal sets. Each treatment type contained 11-13 cucumbers peaches and was repeated 3 times for a total of 33-39 peaches per treatment. For treatment, water, (S)-abscisic acid (“S-ABA”), methyl jasmonate or a mixture of S-ABA and methyl jasmonate were applied to cucumber after harvest via a 2-minute dip at the following concentrations: 1) water only; 2) 0.3 millimolar (“mM”) S-ABA; 3) 3 mM S-ABA; 4) 0.3 mM methyl jasmonate; 5) 3 mM methyl jasmonate; 6) 0.3 mM S-ABA and 0.3 mM methyl jasmonate; 7) 0.3 mM S-ABA and 3 mM methyl jasmonate; 8) 3 mM S-ABA and 0.3 mM methyl jasmonate or 9) 3 mM S-ABA and 3 mM methyl jasmonate. Each treatment includes 0.025% Latron B-1956® (available from J. R. Simplot Company) as an adjuvant. All cucumbers were subsequently dried for 30 minutes and then stored at 5 degrees Celsius for 11.5 days. Following cold storage all cucumbers were placed at room temperature for 4 days and then evaluated for electrolyte leakage and decay on each of days 1, 2,3 and 4. Decay evaluation was performed by counting the number of cucumbers displaying decay and calculating the percentage of affected cucumbers. Decay severity was evaluated using a 1-3 score system, wherein 1=low, 2=medium and 3=high. Healthy fruit was calculated by subtracting the % of disease incidence from 100%. Determination of unexpected results was calculated using the method described in Example 1. above.

[3] = test system: Summer Flame 34 variety Peaches; assay: Flesh browning of waxed peaches after cold storage (Example 2); settings: for Fold Change from Control (Flesh Browning Average Score): 1.2 mM single active; for Flesh Browning Average Score: 1.2 mM single active in Prima Fresh 55EU wax, 5 degrees Celsius 25 days, 3 day room temperature, 6-point scale
Procedure: Flesh browning was determined using a 6-point scale developed by Crisosto G. M. 2015 wherein a score of 1=no browning, 2=very slight browning in the pit cavity, 3=slight browning in the pit cavity and surrounding tissue, 4=moderate browning on less than 50% of the flesh, 5=severe browning on 50% to 75% of the flesh and 6=extreme browning covering most of the flesh. A flesh browning score of more than 3 was determined as a “flesh browning incident” and a score of less than 3 was determined as “healthy fruit” for efficacy purposes.
as §1, §2

[4] = test system: Cucumbers; assay: Electrolyte leakage of cucumbers after cold storage (Example 3); settings: for % Electrolyte Leakage: 2-minute dip, 5 degrees Celsius 11.5 days, then room temperature
From the text: Cucumbers were harvested and waxed and maintained at room temperature until treatment. Cucumbers were divided into 9 equal sets. Each treatment type contained 11-13 cucumbers peaches and was repeated 3 times for a total of 33-39 peaches per treatment. For treatment, water, (S)-abscisic acid (“S-ABA”), methyl jasmonate or a mixture of S-ABA and methyl jasmonate were applied to cucumber after harvest via a 2-minute dip at the following concentrations: 1) water only; 2) 0.3 millimolar (“mM”) S-ABA; 3) 3 mM S-ABA; 4) 0.3 mM methyl jasmonate; 5) 3 mM methyl jasmonate; 6) 0.3 mM S-ABA and 0.3 mM methyl jasmonate; 7) 0.3 mM S-ABA and 3 mM methyl jasmonate; 8) 3 mM S-ABA and 0.3 mM methyl jasmonate or 9) 3 mM S-ABA and 3 mM methyl jasmonate. Each treatment includes 0.025% Latron B-1956® (available from J. R. Simplot Company) as an adjuvant. All cucumbers were subsequently dried for 30 minutes and then stored at 5 degrees Celsius for 11.5 days. Following cold storage all cucumbers were placed at room temperature for 4 days and then evaluated for electrolyte leakage and decay on each of days 1, 2,3 and 4. For electrolyte leakage cucumbers were sliced and a 1-centimeter core sample (i.e. a disc) was taken from each slice. 10 discs were placed in each 50-milliliter centrifuge tube containing 30 milliliter of deionized water and shaken for 25 minutes. Electroconductivity was measured at time zero as soon as the treatments were processed (CO). Electroconductivity was measured again after the discs were shaken in the centrifuge tubes (C1). Finally, electroconductivity was measured after boiling the cucumber sample for 20 minutes and then cooled rapidly (C2). % electrolyte leakage was calculated by the following formula (C1−C0)/C2. Determination of unexpected results was calculated using the method described in Example 1. above.

[5] = test system: Flamin' Fury® variety Peaches; assay: Flesh browning of peaches after cold storage (Example 1); settings: for % Healthy Fruit: 1-minute dip, 5 degrees Celsius 4 weeks, 1 day room temperature, flesh browning score less than 3
Procedure: ' Fury® variety Peaches were harvested and maintained at room temperature until treatment. Peaches were divided into 9 equal sets. Each treatment type contained 15 peaches and was repeated 3 times for a total of 45 peaches per treatment. For treatment, water, (S)-abscisic acid (“S-ABA”), methyl jasmonate or a mixture of S-ABA and methyl jasmonate were applied to peaches after harvest via a 1-minute dip at the following concentrations: 1) water only; 2) 0.33 millimolar (“mM”) S-ABA; 3) 3.3 mM S-ABA; 4) 0.33 mM methyl jasmonate; 5) 3.3 mM methyl jasmonate; 6) 0.33 mM S-ABA and 0.33 mM methyl jasmonate; 7) 0.3 mM S-ABA and 3.3 mM methyl jasmonate; 8) 3.3 mM S-ABA and 0.33 mM methyl jasmonate or 9) 3.3 mM S-ABA and 3.3 mM methyl jasmonate. Each treatment includes 0.025% Latron B-1956® (available from J. R. Simplot Company) as an adjuvant. All peaches were subsequently dried for 30 minutes and then stored at 5 degrees Celsius for 4 weeks. Following cold storage all peaches were placed at room temperature for 1 day and then evaluated for flesh browning. Flesh browning was determined using a 6-point scale developed by Crisosto G. M. 2015 wherein a score of 1=no browning, 2=very slight browning in the pit cavity, 3=slight browning in the pit cavity and surrounding tissue, 4=moderate browning on less than 50% of the flesh, 5=severe browning on 50% to 75% of the flesh and 6=extreme browning covering most of the flesh. A flesh browning score of more than 3 was determined as a “flesh browning incident” and a score of less than 3 was determined as “healthy fruit” for efficacy purposes. […] To determine if the mixtures provided unexpected results, the observed combined efficacy (“OCE”) was divided by the expected combined efficacy (“ECE”) wherein the expected ECE is calculated by the Abbott method: wherein ECE is the expected combined efficacy and in which A and B are the quality score provided by application of the single active ingredients. If the ratio between the OCE of the mixture and the ECE of the mixture is greater than 1, then greater than expected interactions are present in the mixture. (Gisi, Synergistic Interaction of Fungicides in Mixtures, The American Phytopathological Society, 86:11, 1273-1279,1996).

Structure (SMILES) | Fold Change from Control (Flesh Mealiness Average Score) [1] | Flesh Mealiness Average Score [1] | Fold Change from Control (% Healthy Fruit, decay) ([2]; 0.3 mM single active) | % Healthy Fruit (decay) ([2]; 0.3 mM single active) | Fold Change from Control (% Healthy Fruit, decay) ([2]; 3 mM single active) | % Healthy Fruit (decay) ([2]; 3 mM single active) | Fold Change from Control (Flesh Browning Average Score) [3] | Flesh Browning Average Score [3] | Fold Change from Control (% Electrolyte Leakage) ([4]; 0.3 mM single active) | % Electrolyte Leakage ([4]; 0.3 mM single active) | Fold Change from Control (% Electrolyte Leakage) ([4]; 3 mM single active) | % Electrolyte Leakage ([4]; 3 mM single active) | Fold Change from Control (% Healthy Fruit) ([5]; 0.33 mM single active) | % Healthy Fruit ([5]; 0.33 mM single active) | Fold Change from Control (% Healthy Fruit) ([5]; 3.3 mM single active) | % Healthy Fruit ([5]; 3.3 mM single active)
CC/C=C\CC1C(=O)CCC1CC(=O)OC (centres unmarked) [MJ, methyl jasmonate] | −0.10 | 1.50 | −0.22 | 61.5% | −0.09 | 71.4% | −0.09 | 2.79 | −0.06 | 60.3% | −0.07 | 59.7% | 1.18 | 28.0% | 2.26 | 41.8%
CC1=CC(=O)CC(C)(C)[C@@]1(O)/C=C/C(C)=C/C(=O)O [S-ABA, (S)-abscisic acid] | −0.006 | 1.66 | 0.05 | 82.1% | −0.29 | 55.7% | −0.016 | 3.03 | −0.05 | 61.3% | −0.05 | 61.3% | 0.35 | 17.3% | −0.33 | 8.6%
